Data taken from article PMC5077133, “Towards Development of Small Molecule Lipid II Inhibitors as Novel Antibiotics” (PLoS ONE, 2016).

What was measured:
P. aeruginosa ATCC 27853 = test: Antibacterial activity (MIC, broth dilution); format: cell-based; conditions: CLSI
Method: (§1) Determination of the Minimal Inhibitory Concentrations (MIC) by dilution was carried out by broth dilution according to CLSI standards.

[1] = system: K. pneumoniae NR-15410 (KPC); test: Antibacterial activity (MIC, broth dilution); format: cell-based; conditions: CLSI
Method: as §1

S. aureus MRSA 1094 = test: Antibacterial activity (MIC, broth dilution); format: cell-based; conditions: CLSI
Method: as §1

E. aerogenes ATCC 13048 = test: Antibacterial activity (MIC, broth dilution); format: cell-based; conditions: CLSI
Method: as §1

P. aeruginosa PA01 = test: Antibacterial activity (MIC, broth dilution); format: cell-based; conditions: CLSI
Method: as §1

E. faecium EF1509 (VRE) = test: Antibacterial activity (MIC, broth dilution); format: cell-based; conditions: CLSI, in µg/mL
Method: as §1

E. faecium F118 (VRE) = test: Antibacterial activity (MIC, broth dilution); format: cell-based; conditions: CLSI, in µg/mL
Method: as §1

P. aeruginosa X13273 = test: Antibacterial activity (MIC, broth dilution); format: cell-based; conditions: CLSI, in µg/mL
Method: as §1

[2] = system: S. aureus HFH-30123 (MRSA); test: Antibacterial activity (MIC, broth dilution); format: cell-based; conditions: CLSI
Method: as §1

[3] = system: K. pneumoniae NR-15411 (KPC); test: Antibacterial activity (MIC, broth dilution); format: cell-based; conditions: CLSI
Method: as §1

E. cloacae ATCC 13047 = test: Antibacterial activity (MIC, broth dilution); format: cell-based; conditions: CLSI
Method: as §1

HeLa cells = test: Cytotoxicity against mammalian cells (MTS assay); format: cell-based
Method: The cytotoxicity concentration of antibacterial compounds that produces half maximal decrease in viability (CC50) against mammalian cells (HeLa, ATCC CCL-2.2) was determined as described. The effect of compounds on HeLa cell viability was assessed in triplicate by measuring the mitochondrial activity using MTS assays according to the manufacturer’s instructions (Cell Titer 96 proliferation assay, Promega). The cells were incubated for 72 hours in RPMI1640 medium containing the compounds at final concentrations ranging from 64 to 0.125 μg/ml. CC50 was determined using a standard curve of serially diluted untreated cells in each experiment.

A. baumanii ATCC 19606 = test: Antibacterial activity (MIC, broth dilution); format: cell-based, Acinetobacter baumanii; conditions: CLSI, in µg/mL
Excerpt: Staphylococcus aureus ATCC 29213, Escherichia coli ATCC 25922, Enterococcus faecalis ATCC 29212, Streptococcus pneumonia ATCC 49619 and Acinetobacter baumanii ATCC 19606 were obtained from Microbiologics (St. Cloud, MN). E. faecalis ATCC 51575, ATCC 51299 and REMEL C99707 and E. faecium ATCC 51559 (MDR), REMEL IH79985 and REMEL C110914 were generously provided by the Laboratory of Pathology, University of Maryland Baltimore School of Medicine. Unless stated otherwise, chemicals and reagents were purchased from Sigma.
as §1

[4] = Lipid II binding by Surface Plasmon Resonance; conditions: SPR, immobilized 3-Lipid II, 25°C
Method: Short-chain water-soluble Lipid II containing a lipid tail of three isoprene units was generated and purified essentially as described. Typically, M. flavus vesicles (120 μmol lipid-Pi) were incubated together with 500 μmol UDP-GlcNAc, 500 μmol UDP-MurNAC-pentapeptide and 400 μmol farnesyl phosphate in 100 mM Tris-HCl pH 8.0, 5 mM MgCl2. The incubation lasted two hours at room temperature for 3-P. The synthesis of 3-Lipid II was followed using RP-8 reversed phase TLC (Merck) developed in 75% methanol. For purification, the membranes were removed by centrifugation at 40,000 x g and the supernatant was collected and loaded on a C18 HPLC column and eluted with a linear gradient from 50 mM ammonium bicarbonate to 100% methanol in 30 minutes. Farnesyl-Lipid II (3-Lipid II) eluted at approximately 60% methanol. Its identity was confirmed by mass spectroscopy. Surface Plasmon Resonance binding experiments were carried out on a BIAcore T100 system (BIAcore Inc., Piscataway, NY) at 25°C. The assay buffer was 10 mM HEPES, 150 mM NaCl, 0.05% surfactant P20, pH 7.4 (± 3 mM EDTA) supplemented with 10% DMSO. 3-Lipid II (50 RUs) was immobilized on CM5 sensor chips using the amine-coupling chemistry recommended by the manufacturer. For initial determination of binding, compounds were introduced into the flow-cells (30 μl/min) in the running buffer at 10 μM. Resonance signals were corrected for nonspecific binding by subtracting the background of the control flow-cell. After each analysis, the sensor chip surfaces were regenerated with 50 mM NaOH for 30 s at a flow rate 100 μl/min, and equilibrated with the buffer prior to next injection. For binding kinetics studies, binding isotherms were analyzed with manufacturer-supplied software for BIAcore T100.

Structure (SMILES)	Antibacterial activity (MIC) P. aeruginosa ATCC 27853 (P. aeruginosa ATCC 27853)	Antibacterial activity (MIC) K. pneumoniae NR-15410 (KPC) [1]	Antibacterial activity (MIC) S. aureus MRSA 1094 (S. aureus MRSA 1094)	Antibacterial activity (MIC) E. aerogenes ATCC 13048 (E. aerogenes ATCC 13048)	Antibacterial activity (MIC) P. aeruginosa PA01 (P. aeruginosa PA01)	Antibacterial activity (MIC) E. faecium EF1509 (VRE) (E. faecium EF1509 (VRE))	Antibacterial activity (MIC) E. faecium F118 (VRE) (E. faecium F118 (VRE))	Antibacterial activity (MIC) P. aeruginosa X13273 (P. aeruginosa X13273)	Antibacterial activity (MIC) S. aureus HFH-30123 (MRSA) [2]	Antibacterial activity (MIC) K. pneumoniae NR-15411 (KPC) [3]	Antibacterial activity (MIC) E. cloacae ATCC 13047 (E. cloacae ATCC 13047)	Antibacterial activity (MIC) A. baumanii ATCC 19606 (A. baumanii ATCC 19606)	Kd [4]	Lipid II binding Kd [4]	CC50% (72 h HeLa cells) (HeLa cells)
CN(C)c1ccc(/C=C/c2cc(-c3ccc(C(C)(C)C)cc3)cc(-c3ccc(C(C)(C)C)cc3)[o+]2)cc1.F[B-](F)(F)F [6jc-60-1]	≥ 64 µg/mL	≥ 64 µg/mL	8 µg/mL	≥ 64 µg/mL	≥ 64 µg/mL	8	8	>=64	8 µg/mL	≥ 64 µg/mL	≥ 64 µg/mL	>=64	37.9 ± 4 µM		<.78125
Brc1ccc(-c2cc(/C=C/c3cc4c5c(c3)CCCN5CCC4)[o+]c(-c3ccc(Br)cc3)c2)cc1.F[B-](F)(F)F [6jc-69-5]	≥ 64 µg/mL	≥ 64 µg/mL	≥ 64 µg/mL	≥ 64 µg/mL	≥ 64 µg/mL	6	11.31	>=64	64 µg/mL	≥ 64 µg/mL	≥ 64 µg/mL	>=64	32.7 ± 2 µM		4.43
Cn1cc(/C=C/c2cc(-c3ccc(C(C)(C)C)cc3)cc(-c3ccc(C(C)(C)C)cc3)[o+]2)c2ccccc21.F[B-](F)(F)F [6jc66-3]	≥ 64 µg/mL	≥ 64 µg/mL	8 µg/mL	≥ 64 µg/mL	≥ 64 µg/mL	4	11.31	>=64	8 µg/mL	≥ 64 µg/mL	≥ 64 µg/mL	>=64	60 ± 11 µM		5.68
Cc1cc(/C=C/C=C/c2ccc(N(C)C)cc2)cc(C)[o+]1.F[B-](F)(F)F [6jc38]	≥ 64 µg/mL	≥ 64 µg/mL	64 µg/mL	≥ 64 µg/mL	≥ 64 µg/mL	>=64	>=64	>=64	≥ 64 µg/mL	≥ 64 µg/mL	≥ 64 µg/mL	>=64		No	>32
Cc1ccc(-c2cc(/C=C/c3c[nH]c4ccccc34)[o+]c(-c3ccc(C)c(C)c3)c2)cc1C.F[B-](F)(F)F [6jc-59-3]	≥ 64 µg/mL	≥ 64 µg/mL	4 µg/mL	≥ 64 µg/mL	≥ 64 µg/mL	5.657	8	>=64	4 µg/mL	≥ 64 µg/mL	≥ 64 µg/mL	>=64	27.9 ± 3 µM		1.35

More lines, main results first:

Antibacterial activity (MIC) P. aeruginosa ATCC 27853 (P. aeruginosa ATCC 27853)	Antibacterial activity (MIC) K. pneumoniae NR-15410 (KPC) [1]	Antibacterial activity (MIC) S. aureus MRSA 1094 (S. aureus MRSA 1094)	Antibacterial activity (MIC) E. aerogenes ATCC 13048 (E. aerogenes ATCC 13048)	Antibacterial activity (MIC) P. aeruginosa PA01 (P. aeruginosa PA01)	Antibacterial activity (MIC) E. faecium EF1509 (VRE) (E. faecium EF1509 (VRE))	Antibacterial activity (MIC) E. faecium F118 (VRE) (E. faecium F118 (VRE))	Antibacterial activity (MIC) P. aeruginosa X13273 (P. aeruginosa X13273)	Antibacterial activity (MIC) S. aureus HFH-30123 (MRSA) [2]	Antibacterial activity (MIC) K. pneumoniae NR-15411 (KPC) [3]	Antibacterial activity (MIC) E. cloacae ATCC 13047 (E. cloacae ATCC 13047)	Antibacterial activity (MIC) A. baumanii ATCC 19606 (A. baumanii ATCC 19606)	Kd [4]	Lipid II binding Kd [4]	Structure (SMILES)	CC50% (72 h HeLa cells) (HeLa cells)
≥ 64 µg/mL	64 µg/mL	4 µg/mL	≥ 64 µg/mL	≥ 64 µg/mL	4	5.66	>=64	4 µg/mL	≥ 64 µg/mL	≥ 64 µg/mL	64	1.6 ± 0.2 µM		CCc1ccc(-c2cc(/C=C/c3cn(C)c4ccccc34)[o+]c(-c3ccc(CC)cc3)c2)cc1.F[B-](F)(F)F [6jc66-2]	1.42
≥ 64 µg/mL	≥ 64 µg/mL	2 µg/mL	≥ 64 µg/mL	≥ 64 µg/mL	4	4	>=64	2 µg/mL	≥ 64 µg/mL	≥ 64 µg/mL	>=64	1.9 ± 0.3 µM		Cc1ccc(-c2cc(/C=C/c3ccc(N(C)C)cc3)[o+]c(-c3ccc(C)c(C)c3)c2)cc1C.F[B-](F)(F)F [6jc-59-1]	<.78125
≥ 64 µg/mL	64 µg/mL	2 µg/mL	≥ 64 µg/mL	≥ 64 µg/mL	0.5	2	>=64	4 µg/mL	≥ 64 µg/mL	≥ 64 µg/mL	32	9.5 ± 2 µM		Cc1ccc(-c2cc(/C=C/C=C/c3ccc(N(C)C)cc3)[o+]c(-c3ccc(C)cc3)c2)cc1.F[B-](F)(F)F [6jc51-2]	<.78125
